Entries after “also recorded” stand apart in the source; their conditions may differ.
How the values were obtained:
cholesterol-fed monkeys = details: cited from earlier work
LDLR null mice = test: Plasma lipid levels (total cholesterol, triglycerides, HDL-cholesterol) in LDLR null mice fed Western diet for two weeks; format: in vivo, mouse
Procedure: Res. Per. 3: e00154; Chattopadhyay et al. (2016) J. Lipid Res. 57: 832-847; PCT Pub. Nos: WO 2013/148214 (PCT/US2013/031037), WO 2015/175968 (PCT/US2015/031134)) (Tg6F), or the mice were fed WD with Ezetimibe added to give a daily dose of 10 mg/kg body weight/day (WD+Ezetimibe), or the mice were fed WD with Tg6F added at 0.06% by weight plus Ezetimibe (each added separately to the diet) to give a daily dose of Ezetimibe of 10 mg/kg body weight; the Tg6F and Ezetimibe were mixed into WD as described previously (Chattopadhyay et al. (2016) J. Lipid. Res. 57: 832-847) (Combined Formulation), or the mice were fed WD to which was added ezetimibe-associated transgenic 6F peptide (Ez-tg6F) at 0.06% Tg6F by weight containing sufficient Ezetimibe to give a daily dose of 10 mg/kg body weight/day that was prepared as described herein. Specifically, the ezetimibe-associated Tg6F peptide (Ez-Tg6F) was made by adding the ezetimibe directly to a solution of ethyl acetate 5% acetic acid that had been incubated overnight at room temperature with freeze-dried tomato powder obtained from transgenic tomatoes expressing the 6F peptide, and which had been removed to a separate vessel as described previously (see, e.g., Chattopadhyay et al. (2015) Pharma. Res. Per. 3: e00154; Chattopadhyay et al. (2016) J. Lipid. Res. 57: 832-847) prior to addition of the ezetimibe. After the addition of the ezetimibe, the solution was incubated at room temperature with gentle mixing for two hours prior to processing and addition of the resulting freeze-dried powder to WD as previously described (Chattopadhyay et al. (2016) J. Lipid. Res. 57: 832-847). After feeding the diets for two weeks, the mice were bled and total plasma cholesterol levels were determined as described (Id.). NS=Not Significant.
LDLR-null mice originally purchased from Jackson Laboratories on a C57BL/6J background were obtained from the breeding colony of the Department of Laboratory and Animal Medicine at the David Geffen School of Medicine at UCLA. The gender and age of the mice are stated in the legend to each figure. The mice were maintained on standard mouse chow (Ralston Purina) before being switched to a Western diet WD (Teklad, Harlan, catalog #TD88137).
In experiments in which Tg6F or EV or Ezetimibe were administered as single agents, the EV or Tg6F concentrate was added to WD at 0.06% by weight or Ezetimibe was added to WD to give a final dose of 10 mg/kg body weight/day. The EV or Tg6F concentrate or Ezetimibe was mixed into the diets as described (Chattopadhyay et al. (2015) Pharma. Res. Per. 3: e00154). […]

O=C1[C@H](CC[C@H](O)c2ccc(F)cc2)[C@@H](c2ccc(O)cc2)N1c1ccc(F)cc1 [Ezetimibe, (3R,4S)-1-(4-fluorophenyl)-3-[(3S)-3-(4-fluorophenyl)-3-hydroxypropyl]-4-(4-hydroxyphenyl)azetidin-2-one]
ED50 value (median effective dose) for inhibiting the rise in plasma cholesterol levels (cholesterol-fed monkeys): 0.5 µg/kg/day
dyslipidemia (plasma total cholesterol, triglycerides, HDL-Cholesterol) (LDLR null mice; female LDLR null mice age 3-6 months, n=20-28 per group, WD two weeks, Tg6F 0.06% by weight, Ezetimibe 10 mg/kg/day, FIG. 15): significantly ameliorated dyslipidemia
plasma triglyceride levels (LDLR null mice; statement over the experiments of Example 3 (single agents five out of five, Combined Formulation five out of five, Novel Method three out three experiments)): equally effective; also recorded: improved plasma total cholesterol and triglyceride levels
plasma total cholesterol levels (LDLR null mice; statement over the experiments of Example 3 (single agents five out of five, Combined Formulation four out of five, Novel Method three out three experiments)): equally effective; also recorded: improved plasma total cholesterol and triglyceride levels
plasma HDL-cholesterol levels (LDLR null mice; statement over the experiments of Example 3 (single agents four out of four, Combined Formulation four out of four, Novel Method two out of two experiments)): equally effective; also recorded: significantly increased the levels

Source: patent US10905736B2, “Ezetimibe-associated ApoA-I mimetic peptides showing enhanced synergism” (The Regents of the University of California, priority 2016, dated 2021)
